Reference: patent US20100075907A1, “NEUROMEDIN U RECEPTOR AGONISTS AND USES THEREOF” (priority 2006, published 2010)
Non-standard residues stand in square brackets, D forms with d. Residues, ends and D or L forms follow the SMILES beside them. No end group written: not given here. *: point of attachment. Succinimide(1-Et,3-yl) = CCN1C(=O)CC(*)C1=O; hArg = N=C(N)NCCCC[C@H](N)C(=O)O

Key:
rat NMUR1-TTG = target: T1, rat NMUR1-TTG (Rattus norvegicus, UniProt Q9JJI5); assay: FLIPR calcium mobilization assay, rat NMUR1-TTG; assay type: cell-based; set-up: expressed in transfected cells; host or cells: FLP-In CHO or HEK-293 FLP-In cells (pcDNA5); conditions: functional data, rat R1-TTG
T1 sequence (Q9JJI5 1-425): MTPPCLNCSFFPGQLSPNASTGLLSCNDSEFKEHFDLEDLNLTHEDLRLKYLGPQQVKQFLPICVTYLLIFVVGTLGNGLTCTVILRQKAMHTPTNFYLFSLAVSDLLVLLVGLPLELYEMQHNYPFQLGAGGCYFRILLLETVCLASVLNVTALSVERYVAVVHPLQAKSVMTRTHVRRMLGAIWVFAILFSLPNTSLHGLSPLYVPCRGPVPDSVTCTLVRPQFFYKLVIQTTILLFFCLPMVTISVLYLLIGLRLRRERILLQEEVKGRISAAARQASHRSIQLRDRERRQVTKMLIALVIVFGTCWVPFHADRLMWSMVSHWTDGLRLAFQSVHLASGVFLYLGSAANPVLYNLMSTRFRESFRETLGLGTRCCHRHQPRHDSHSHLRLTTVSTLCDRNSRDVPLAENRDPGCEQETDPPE

hNMUR2 = hNMUR2 (Homo sapiens, UniProt Q9GZQ4); assay: FLIPR calcium mobilization assay, human NMUR2; assay type: cell-based; set-up: expressed in transfected cells; host or cells: FLP-In CHO or HEK-293 FLP-In cells (pcDNA5); HEK-293/aeq17 lines (pcDNA3.1) were also made; conditions: functional data, human R2
Chain of hNMUR2 (Q9GZQ4 whole entry): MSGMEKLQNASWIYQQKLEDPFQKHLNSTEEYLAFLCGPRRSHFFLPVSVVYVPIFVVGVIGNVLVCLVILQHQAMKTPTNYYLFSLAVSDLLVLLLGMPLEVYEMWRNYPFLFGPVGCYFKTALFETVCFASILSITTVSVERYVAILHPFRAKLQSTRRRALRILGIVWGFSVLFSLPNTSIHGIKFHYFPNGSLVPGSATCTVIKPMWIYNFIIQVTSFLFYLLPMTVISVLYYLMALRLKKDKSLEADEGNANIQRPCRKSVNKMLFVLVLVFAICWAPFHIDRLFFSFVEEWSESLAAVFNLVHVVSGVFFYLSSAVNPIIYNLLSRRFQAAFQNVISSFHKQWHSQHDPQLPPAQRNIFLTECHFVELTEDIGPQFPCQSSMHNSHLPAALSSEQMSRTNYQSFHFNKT

rat NMUR1-ATG = target: T2, rat NMUR1-ATG (Rattus norvegicus, UniProt Q9JJI5); assay: 125I-hNMU-25 binding assay, rat R1-ATG; set-up: expressed in transfected cells; host or cells: HEK-293 FLP-In cells (pcDNA5); conditions: for IC50: binding
T2 sequence (Q9JJI5 1-425): T1 sequence (Q9JJI5 1-425)
Method: (§1) Confluent cell monolayers expressing NMU receptors (the HEK cells described above) were harvested with phosphate buffered saline, collected by centrifugation, and resuspended in membrane buffer (50 mM TrisCl pH 7.4, 5 mM MgCl2, 1× Protease Inhibitor Cocktail, 10 μM phosphoramidon). After the cell pellet was homogenized, the solution was centrifuged at 18,000 rpm for 20 minutes at 4° C. The pellet was resuspended in membrane buffer to yield a final concentration of 0.5-5 μg/μL of membrane and stored at −80° C.
(§2) Experiments were performed in assay buffer (25 mM TrisCl, pH 7.4, 10 mM MgCl2, 2 mM EDTA, 1× Protease Inhibitor Cocktail, 100 μg/mL Bacitricin, 10 μM phosphoramidon) in 200 μL volumes in a 96-well format using 2-5 μg of membrane and 0.1 nM ^125I-hNMU-25 (about 12,000 cpm/well). For non-specific binding, 1 μM hNMU-25 was added. About 5 μL of peptides were added to measure antagonist activity, and the entire reaction was incubated at room temperature with shaking for 80 minutes. The reaction was terminated by rapid filtration through 0.3% poly-ethylenimine presoaked Millipore 96-well filter plates and washed with ice-cold buffer (5 mM TrisCl pH 7.4, 10 mM MgCl2, 2.5 mM EDTA, 0.04% Triton X-100). Plates were air-dried overnight at room temperature and recovered radioactivity was determined by standard scintillation counting. IC50 values were determined using GraphPad Prism software.
(§3) Concentration-response curves and radioligand-binding data were fitted using Prism (GraphPad Software). Results are summarized below in Tables 8 and 9.

mouse NMUR1-ATG = target: T3, mouse NMUR1-ATG (Mus musculus, UniProt O55040); assay: 125I-hNMU-25 binding assay, mouse R1-ATG; set-up: expressed in transfected cells; host or cells: HEK-293 FLP-In cells (pcDNA5); conditions: for IC50: binding
T3 sequence (O55040 1-428): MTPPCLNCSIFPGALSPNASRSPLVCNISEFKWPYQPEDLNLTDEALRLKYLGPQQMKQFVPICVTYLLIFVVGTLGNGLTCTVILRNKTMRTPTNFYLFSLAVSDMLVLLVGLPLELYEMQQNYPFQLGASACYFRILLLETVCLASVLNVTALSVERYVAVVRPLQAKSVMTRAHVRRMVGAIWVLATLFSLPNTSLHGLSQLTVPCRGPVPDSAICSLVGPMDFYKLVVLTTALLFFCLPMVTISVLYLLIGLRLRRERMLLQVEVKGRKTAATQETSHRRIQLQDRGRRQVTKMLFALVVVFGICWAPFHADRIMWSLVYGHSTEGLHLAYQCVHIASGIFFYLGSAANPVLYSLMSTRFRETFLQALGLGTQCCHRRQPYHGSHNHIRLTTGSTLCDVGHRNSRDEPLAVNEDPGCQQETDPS
Method: as §1, §2, §3

NMUR1 and NMUR2 = assay: NMU receptor subtype selectivity (EC50 ratios human NMUR2/human NMUR1); assay type: cell-based; conditions: NMUR1 vs NMUR2
Method: The present invention provides neuromedin U receptor agonist. The neuromedin U receptor agonist described herein act at NMU receptors, bind the NMU receptors, and stimulate NMU receptor activity. In one aspect, the neuromedin U receptor agonists are specific for one receptor subtype, wherein such specificity is defined as having an IC50 values that is less than about 200 nM in the corresponding NMUR1 or NMUR2 receptor binding assay. Selectivity is based upon functional activity or EC50 ratios at human NMUR2/human NMUR1 for NMUR1-selective peptides and at human NMUR1/human NMUR2 for NMUR2-selective peptides. Further, the selective neuromedin U receptor agonists described herein range from about 21 to 909-fold selective for NMUR1 and from about 2 to 200-fold selective for NMUR2. In another aspect, the neuromedin U receptor agonists are capable of binding and stimulating both the NMUR1 and NMUR2 receptors and have been derivatized to enable the neuromedin U receptor agonists to cross the blood-brain bather and interact with NMU receptors in the brain. The neuromedin U receptor agonists can be used therapeutically and as research tools.

Compound	IC50 (rat NMUR1-TTG) [nM]	IC50 (hNMUR2) [nM]	% inhibition of NMU-25 binding (rat NMUR1-ATG) [%]	IC50 (rat NMUR1-ATG) [nM]	% inhibition of NMU-25 binding (mouse NMUR1-ATG) [%]	IC50 (mouse NMUR1-ATG) [nM]	receptor subtype specificity (NMUR1 and NMUR2)
CC(C)C[C@@H](NC(=O)[C@H](Cc1ccccc1)NC(=O)[C@H](Cc1ccc(O)cc1)NC(=O)CNC(=O)[C@H](CCCNC(=N)N)NC(=O)[C@H](CO)NC(=O)[C@H](CCC(N)=O)NC(=O)[C@H](CO)NC(=O)[C@H](C)NC(=O)[C@H](Cc1ccccc1)NC(=O)[C@@H]1CCCN1C(=O)[C@H](CO)NC(=O)[C@H](CCC(N)=O)NC(=O)[C@H](Cc1ccccc1)NC(=O)[C@H](CCC(=O)O)NC(=O)[C@H](CCC(=O)O)NC(=O)[C@H](CC(=O)O)NC(=O)[C@@H](NC(=O)[C@H](CCCNC(=N)N)NC(=O)[C@@H](N)Cc1ccccc1)C(C)C)C(=O)N[C@@H](Cc1c[nH]c2ccccc12)C(=O)N[C@@H](CCCNC(=N)N)C(=O)N1CCC[C@H]1C(=O)N[C@@H](CCCNC(=N)N)C(=O)N[C@@H](CC(N)=O)C(N)=O [Agonist H] (H-FRVDEEFQSPFASQSRGYF[dL]WRPRN-NH2; N-terminus assumed)	153	> 1000	100	15.9	77	66	
CC(C)C[C@H](NC(=O)[C@H](Cc1c[nH]c2ccccc12)NC(=O)[C@H](Cc1ccccc1)NC(=O)CNC(=O)[C@H](CCCNC(=N)N)NC(=O)[C@H](CO)NC(=O)[C@H](CCC(N)=O)NC(=O)[C@H](CO)NC(=O)[C@H](C)NC(=O)[C@H](Cc1ccccc1)NC(=O)[C@@H]1CCCN1C(=O)[C@H](CO)NC(=O)[C@H](CCC(N)=O)NC(=O)[C@H](Cc1ccccc1)NC(=O)[C@H](CCC(=O)O)NC(=O)[C@H](CCC(=O)O)NC(=O)[C@H](CC(=O)O)NC(=O)[C@@H](NC(=O)[C@H](CCCNC(=N)N)NC(=O)[C@@H](N)Cc1ccccc1)C(C)C)C(=O)N[C@@H](Cc1ccccc1)C(=O)N[C@@H](CCCNC(=N)N)C(=O)N1CCC[C@H]1C(=O)N[C@@H](CCCCNC(=N)N)C(=O)N[C@@H](CC(N)=O)C(N)=O [Agonist O] (H-FRVDEEFQSPFASQSRGFWLFRP[hArg]N-NH2; N-terminus assumed)							bispecific
CC(C)C[C@H](NC(=O)[C@H](Cc1c[nH]c2ccccc12)NC(=O)[C@H](Cc1ccccc1)NC(=O)CNC(=O)[C@H](CCCNC(=N)N)NC(=O)[C@H](CO)NC(=O)[C@H](CCC(N)=O)NC(=O)[C@H](CO)NC(=O)[C@H](C)NC(=O)[C@H](Cc1ccccc1)NC(=O)[C@@H]1CCCN1C(=O)[C@H](CO)NC(=O)[C@H](CCC(N)=O)NC(=O)[C@H](Cc1ccccc1)NC(=O)[C@H](CCC(=O)O)NC(=O)[C@H](CCC(=O)O)NC(=O)[C@H](CC(=O)O)NC(=O)[C@@H](NC(=O)[C@H](CCCNC(=N)N)NC(=O)[C@@H](N)Cc1ccccc1)C(C)C)C(=O)N[C@@H](Cc1ccccc1)C(=O)N[C@@H](CCCNC(=N)N)C(=O)N[C@@H](C)C(=O)N[C@@H](CCCCNC(=N)N)C(=O)N[C@@H](CC(N)=O)C(N)=O [Agonist P] (H-FRVDEEFQSPFASQSRGFWLFRA[hArg]N-NH2; N-terminus assumed)							bispecific
CCN1C(=O)CC(SC[C@H](NC(C)=O)C(=O)N[C@@H](Cc2ccccc2)C(=O)N[C@@H](CCCNC(=N)N)C(=O)N[C@H](C(=O)N[C@@H](CC(=O)O)C(=O)N[C@@H](CCC(=O)O)C(=O)N[C@@H](CCC(=O)O)C(=O)N[C@@H](Cc2ccccc2)C(=O)N[C@@H](CCC(N)=O)C(=O)N[C@@H](CO)C(=O)N2CCC[C@H]2C(=O)N[C@@H](Cc2ccccc2)C(=O)N[C@@H](C)C(=O)N[C@@H](CO)C(=O)N[C@@H](CCC(N)=O)C(=O)N[C@@H](CO)C(=O)N[C@@H](CCCNC(=N)N)C(=O)NCC(=O)N[C@@H](Cc2ccc(O)cc2)C(=O)N[C@@H](Cc2ccccc2)C(=O)N[C@H](C)C(=O)N[C@@H](Cc2c[nH]c3ccccc23)C(=O)N[C@@H](CCCNC(=N)N)C(=O)N2CCC[C@H]2C(=O)N[C@@H](CCCNC(=N)N)C(=O)N[C@@H](CC(N)=O)C(N)=O)C(C)C)C1=O (stereo partly shown) [NMU13] (Ac-C(Succinimide(1-Et,3-yl))FRVDEEFQSPFASQSRGYF[dA]WRPRN-NH2)		> 1000	100		100		
FALFRPRN-NH2 [Agonist N]							bispecific
H-FRVDEEFQSPFASQSRGYFLFRPRN-NH2 [hNMU-25, reference compound]	1	0.8		1.2		0.4	
